No end group written: not given here.
Columns and labels:
[1] = test system: peripheral CD14+ cells (GM-DCs, FL-DCs); test: Human DC generation from peripheral CD14+ cells, surface expression; format: cell-based
Description: GM-DCs or FL-DCs were obtained from purified CD14+ monocytes from healthy donors or transplanted patients (1 month post-HSCT) cultured in Iscove's modified medium for 7-9 days, in the presence of rGM-CSF (Schering-Plough, Milan, Italy) and rIL-4 (Peprotech, Inalco, Milan, Italy) or FLT3-L (Immunex Corporation, Seattle, Wash.) (Blood. 2004; 103:4232-4239). DC recovery was between 20-30% reduced in cultures from transplanted patients. Murine GM-DCs or FL-DCs were obtained from bone marrow cells for 7-9 days, as described (Blood. 2004; 103:4232-4239). Thymosin alpha 1 and sThymosin alpha 1 were added to the cultures at 20 ng/mL. DCs (>99% CD11c+ consisting of 90-95% CD8-, 5-10% CD8+, and 1-5% B220+ cells) were purified from spleens (spDCs) by magnetic-activated sorting using CD11c MicroBeads and MidiMacs (Miltenyi Biotech). DC populations were further separated into CD8−, CD8+ and B220+ fractions by means of CD8 or B220 MicroBeads (Miltenyi Biotech). DCs were pulsed in serum-free Iscove medium for 24 hours with live unopsonized Aspergillus conidia or Zymosan from Saccharomyces cerevisiae (Sigma) or CpG-ODN 2006 as described.7 Phagocytosis was done as described (Blood. 2004; 103:4232-4239). Photographs were taken using a high Resolution Microscopy Color Camera AxioCam, using the AxioVision Software Rel. 3.1 (Carl Zeiss, Milan, Italy).
DCs were analyzed for antigen expression with a FACScan flow cytofluorometer (Becton Dickinson, Mountain View, Calif.) equipped with CELLQuest™ software and using conjugated mAbs from PharMingen (Blood. 2004; 103:4232-4239).
(A) Surface expression of CD11c, CD1a and CD123 on DCs derived from peripheral CD14+ cells of different donors with GM-CSF/IL-4 (GM-DCs) or FLT3L (FL-DCs) in the presence of Thymosin alpha 1. Percent of positive cells is indicated.

[2] = test system: lymphosarcoma cells; conditions: BALB/c mice; cited from earlier work
[3] = test system: CD4+ T cell clones; test: Aspergillus-specific or alloreactive human T cell clones responding to DCs; format: cell-based; conditions: healthy donors or transplanted patients
Description: Aspergillus-specific human CD4+ T cell clones were generated from peripheral blood CD4+CD45RA+ T cells added at limiting dilution concentrations to irradiated (20 Gy) feeder autologous peripheral blood cells and stimulated with conidia-pulsed DCs or allogeneic DCs (Blood. 2005; 106:4397-4406). Growing clones were assessed for specificity against fungus-pulsed DCs, allogeneic DCs, autologous irradiated cells (as a negative control) and 0.5% phytohemoagglutinin (as a positive control) by H^3-thymidine (Amersham Biosciences, Little Chalfont, UK) labeling or cytokine content in supernatants 2 days later (Blood. 2005; 106:4397-4406).
(E) Frequency of Aspergillus-specific or alloreactive T cell clones responding to the different types of fungus-pulsed DCs or unpulsed DCs, respectively, from healthy donors or transplanted patients. Growing clones were assessed for specificity after 2 days of stimulation with DCs. (*) p<0.05, GM-DCs versus peripheral blood cells (−). (**) P<0.05, HSCT-DCs versus all other DCs. nd, not done.

[4] = GVHD in experimental HSCT with donor T cells and DCs; format: in vivo, mouse; conditions: 10^5 donor T cells plus Thymosin alpha 1-treated GM-DCs, uninfected mice
Description: Human peripheral blood mononuclear cells were obtained from healthy donors and seven recipients of T-cell depleted haploidentical HSCT, upon written informed consent. Donor typing, engraftment and GVHD were assessed as described (Blood. 2005; 106; 4397-4406). Experimental HSCT model Lethally irradiated (8 Gy) C57BL6 mice were infused with T cell-depleted bone marrow cells from BALB/c mice (Blood. 2003; 102:3807-3814). For GVHD, purified donor CD3+ T splenocytes were added to the graft (Science. 2002; 295:2097-2100). Individual mice were graded weekly from 0-2 for each GVHD criterion (see legend to FIG. 3) without knowledge of treatment group.
Mice were either left uninfected for the assessment of GVHD or infected for the assessment of susceptibility to infection. […]
Resistance to infection was assessed in terms of MST (median survival time in days) and fungal growth in the lung ([…] glucosamine content, bars indicating standard errors) 3 days after infection or at the time of death (A). […] The degree of systemic GVHD was assessed by a scoring system that sums changes in five clinical parameters: weight loss, posture (hunching), activity, fur texture, and skin integrity (maximum index=10). […]

[5] = GM-CSF/IL-4-treated cultures, healthy donors

## Thymosin alpha 1: naturally occurring thymic peptide; supplied as purified, endotoxin-free sterile lyophilized acetylated polypeptide from SciClone Pharmaceuticals (Ac-SDAAVDTSSEITTKDLKEKKEVVEEAEN; UniProt P06454 2-29, looked up)
[1]; FLT3-L cultures
  mobilization of CD123+ pDCs and CD1a+ DCs in FLT3-L cultures: No such effects were observed
[1]; [5]
  mobilization of CD1a+DCs: decreasing that of CD1a+DCs
  mobilization of CD123+ pDCs: promoted the mobilization of CD123+ pDCs
[2]
  local sarcoma growth, liver and lung metastases of lymphosarcoma cells: significantly reduced
[3]
  ability of DCs to activate fungus- or alloantigen-specific T cell reactivity: modified neither the antigen-specific T cell responses induced by DCs nor the allostimulatory capacity
[4]
  acceleration of GVHD induction by GM-DCs: totally prevented the effect

From patent US8022036B2, “Use of thymosin alpha 1 for the treatment of immunological diseases” (Sigma-Tau Industrie Farmaceutiche Riunite S.p.A., priority 2006, dated 2011)
